Columns and labels:
[1] = tested on: SKBR3 breast tumor cells; assay: Uptake assay in SKBR3 breast tumor cells; format: cell-based, human; conditions: average of two assays, variance 5-20%
Method: (§1) The cell uptake assay protocol was developed by Delmon-Moingeon et al.^10 Breast tumor cells (SKBR3) were incubated in media over a 2 hr time course with each test sample. This line has been identified as having high membrane potential and has been characterized for uptake of ^99m Tc-sestamibi. […] The first time point (10 min.) was used to compare compounds, as this was felt to represent the non-equilibrium kinetics of delivery experienced in vivo.

[2] = tested on: A549 lung tumor cells; assay: Uptake assay in A549 lung tumor cells; format: cell-based; conditions: average of two assays, variance 5-20%
Method: [Worded in the source for another cell line; this cell line is reported under the same test.] as §1

[3] = tested on: HBL100 nontransformed breast cells; assay: Uptake assay in HBL100 nontransformed breast cells; format: cell-based; conditions: average of two assays, variance 5-20%
[4] = tested on: SKBR3 human breast tumor cells vs CV-1 normal epithelial cells; assay: Washout assay: retention in an adherent cell assay, ratio of tumor (SKBR3)/normal (CV-1); format: cell-based; conditions: for Retention, ratio of tumor/normal 99mTc activity: SKBR3/CV-1, mean of 4 slips per cell line
Method: (§2) Two cell lines are grown on cover slips: SKBR3 human breast tumor with known high membrane potential, and an epithelial cell line (CV1) of low membrane potential. Breast tumor cells (SKBR3) and normal epithelial cells (CV-1) are grown on cover slips (5×10^5 cells) and incubated for 60 min with 100 μCi of ^99m Tc-isonitrile. The slips are then incubated for 120 min in nonisotopic medium with repeated rinses. ^99m Tc activity remaining on the slips is determined at 0, 0.5, 1, 1.5, and 2 hr. Results are expressed as the ratio of tumor/normal ^99m Tc activity at each of the times. Values are the mean of 4 slips per cell line.
The washout assay characterizes the retention of compounds having gained access to the cell. A significant feature of this assay is that each cover slip was given a cell count at the end of the assay, and results were corrected for actual cell density. Because of high nonspecific binding to the coverslips, early times during washout are not meaningful, and so actual uptake and pharmacokinetics during the first phase of washout are not available. The results, however, are useful in predicting prolonged retention of compounds after blood levels have cleared.

[5] = tested on: breast tumors in c-neu oncomice; assay: Pairwise imaging in the c-neu oncomouse; format: in vivo, mouse; conditions: for Mean of Tumor Ratio Test/99mTc-sestamibi +/- Std Dev: paired imaging, c-neu oncomice, 6 animals (14 tumors), ** p < .01
Description: The pairwise model was designed to directly compare the images of ^99m Tc-TBI with ^99m Tc-sestamibi. The same mouse was imaged at two separate times within 96 hr of each other with the test compound at one time and ^99m Tc-sestamibi at the other. The order of test and reference compound injected were random, but each study included at least an n=2 in each direction.
Female c-neu oncomice (18-30 g) and FVB wildtype mice were used in the pairwise studies. Mice with breast tumors between 1-15 mm were selected for imaging. Animals were anesthetized with sodium pentobarbital (IP) at a dose of 80 mg/kg. Tumors were measured with dial calipers and recorded on mouse templates. The tail was immersed in hot water for 1-2 min, wiped with alcohol, and injected via the tail vein (28 gauge insulin needle) with […] (0.15mL) of prepared ^99m Tc-TBI. The mouse was secured in a supine position on the dissection board with limbs and head extended to expose the chest area for optimal imaging of breast tumors. All image acquisitions were performed using a Picker Digital Dyna Gamma Camera, a Siemens MicroDelta terminal/MAXDELTA system, and a custom-made 1 mm pinhole collimator mounted on the gamma camera. The general static acquisition protocol was employed, using an acquisition matrix of 256×256 pixels, in word mode. The mouse was placed at a distance of 3 cm from the surface of the dissection board to the bottom of the collimator. The anterior view of the upper torso of the animal was acquired at each time point. Consecutive images were collected starting at 10 min post injection. Six 10 min images were collected at the 3 cm distance and one 10 min image was collected of the whole body at 15 cm to determine any tail vein activity. […] Total activity injected was determined by measuring the syringe before and after injection, then corrected for decay back to the time of injection. The pairwise images within each study were normalized for injected dose and regions of interest were taken over breast tumors and the heart. The mean ratio of ^99m Tc-TBI to ^99m Tc-sestamibi in the tumor was reported.

[6] = tested on: SKBR3 tumor cells; assay: Tumor cell washout kinetics (t1/2); format: cell-based, human; conditions: washout from SKBR3 cells; for 1/2 life SKBR3 Tumor Cells: second phase of biphasic kinetics
Method: as §2
The half lives were also calculated for the washout of ^99m Tc-isonitriles from SKBR3 cells.

[7] = tested on: breast adenocarcinomas in c-neu oncomice; assay: Dual label whole body autoradiography and histochemistry; format: in vivo, mouse; conditions: c-neu OncoMouse, whole body autoradiography
Method: The test compound was given i.v. to a transgenic c-neu mouse (OncoMouse™). This mouse has been genetically constructed to spontaneously produce breast tumors. The tumors develop with the same cribriform pattern as observed in human tumors and have a similar pattern of blood supply.
Female c-neu oncomice bearing breast adenocarcinomas >0.5 cm in diameter were injected i.v. with 1-3 mCi of ^99m Tc-TBI and 5 μCi of C-14 2-deoxy-D-glucose. The mice were sacrificed at 30 min post injection by CO2 inhalation. The carcass was embedded and frozen in embedding medium and 20μ frozen sections were obtained in a cryotome. Autoradiograms of sections and standards were obtained on Kodak SB5 X-ray film. Adjacent sections (5μ) were obtained and stained with hemotoxylin and eosin (H&E). Images were digitized on a LOATS video-based computerized densitometer, and regions of intersect were obtained (% ID/g).

[8] = tested on: breast tumors; conditions: J. Nucl. Med. 1993, 34:149P; cited from earlier work
[9] = tested on: heart; conditions: Example 5 of Bergstein et al, U.S. Pat. No. 4,988,827; compared with ether isonitriles; cited from earlier work

Compound	Uptake (% of total) ([1]; SKBR3, 10 minutes)	Uptake (% of total) ([1]; SKBR3, 20 minutes)	Uptake (% of total) ([1]; SKBR3, 60 minutes)	Uptake (% of total) ([2]; A549, 10 minutes)	Uptake (% of total) ([2]; A549, 20 minutes)	Uptake (% of total) ([2]; A549, 60 minutes)	Uptake (% of total) ([3]; HBL100, 10 minutes)	Uptake (% of total) ([3]; HBL100, 20 minutes)	Uptake (% of total) ([3]; HBL100, 60 minutes)	Retention, ratio of tumor/normal 99mTc activity ([4]; washout time 0 hr)	Retention, ratio of tumor/normal 99mTc activity ([4]; washout time 0.5 hr)	Retention, ratio of tumor/normal 99mTc activity ([4]; washout time 1 hr)	Retention, ratio of tumor/normal 99mTc activity ([4]; washout time 1.5 hr)	Retention, ratio of tumor/normal 99mTc activity ([4]; washout time 2 hr)	Mean of Tumor Ratio Test/99mTc-sestamibi +/- Std Dev [5]	1/2 life SKBR3 Tumor Cells [6]	further results
[C-]#[N+]CC(C)(C)OC.[C-]#[N+]CC(C)(C)OC.[C-]#[N+]CC(C)(C)OC.[C-]#[N+]CC(C)(C)OC.[C-]#[N+]CC(C)(C)OC.[C-]#[N+]CC(C)(C)OC.[Tc] [MIBI, reference compound]	1.8%	4.5%	17.2%	0.7%	2.5%	7.3%	0.9%	3.4%	8.8%	38	36	34	29	26	1	120.5	correlation between breast tumor retention and tissue viability [7]: strong correlation; sensitivity for imaging breast tumors [8]: > 90%; specificity for imaging breast tumors [8]: > 70%
^99m Tc-tertiary-butyl isonitrile complex [TBI]	71.1%	68.1%	67%	49.8%	45.3%	43.1%	61.3%	62.4%	64.3%	12	24	31	35	37	1.33 +/-0.43	656.0	retention in tumor cells during washout ([4]; tumor cell culture, in words): prolonged retention in tumor cells during washout; tumor uptake and retention in vivo, relative to 99mTc-sestamibi ([5]; in words): significantly increased tumor uptake and retention in vivo; increase in tumor retention/uptake compared with 99mTc-sestamibi ([5]; pairwise imaging, c-neu OncoMouse, p<0.01): 133%; increase in t1/2 (longer retention) compared with 99mTc-sestamibi [6]: 6 fold; heart/liver and heart/lung uptake ratios [9]: low heart/liver and heart/lung uptake ratios
